Laboratory results as given in the CombiSolv-Exp solvation set (Vermeire and Green 2021).
Each block holds one compound with its values, some of them ahead of it.

Test: solvent given as SMILES

Compound: CC(Cl)CCl (stereo not given)
solvation free energy, 298 K (in CCCCCC): -4.17 kcal/mol
solvation free energy, 298 K (in CCCCCCCCO): -4.03 kcal/mol
solvation free energy, 298 K (in ClC(Cl)(Cl)Cl): -4.65 kcal/mol

Compound: O=C1CCCC1
solvation free energy, 298 K (in CCCCCCC): -4.53 kcal/mol
solvation free energy, 298 K (in CCCCCCCCCCCCCCCC): -4.22 kcal/mol
solvation free energy, 298 K (in CCCCCCCCO): -5.02 kcal/mol
solvation free energy, 298 K (in CCCCCl): -5.46 kcal/mol
solvation free energy, 298 K (in CCCCOCCCC): -4.82 kcal/mol
solvation free energy, 298 K (in ClC(Cl)(Cl)Cl): -5.54 kcal/mol
solvation free energy, 298 K (in ClCCCl): -6.26 kcal/mol
solvation free energy, 298 K (in O): -4.72 kcal/mol
solvation free energy, 298 K (in [2H]O[2H]): -4.75 kcal/mol

Compound: CC=CCCC
solvation free energy, 298 K (in NC=O): -1.06 kcal/mol
solvation free energy, 298 K (in OCCO): -1.25 kcal/mol
solvation free energy, 298 K (in OCCOCCO): -1.92 kcal/mol
solvation free energy, 298 K (in OCCOCCOCCO): -2.02 kcal/mol

solvation free energy, 298 K (in CCCCCCC): -2.5 kcal/mol
Compound: NCCO

solvation free energy, 298 K (in O): -4.42 kcal/mol
Compound: COC(OC)OC

solvation free energy, 298 K (in O): -8.41 kcal/mol
Compound: Cn1ccnc1

solvation free energy, 298 K (in O): -6.13 kcal/mol
Compound: CCCCC(=O)O

solvation free energy, 298 K (in CN1CCCC1=O): -2.84 kcal/mol
solvation free energy, 298 K (in CN(C)C=O): -2.93 kcal/mol
solvation free energy, 298 K (in CS(C)=O): -2.72 kcal/mol
solvation free energy, 298 K (in O): 0.54 kcal/mol
solvation free energy, 298 K (in O=CN1CCOCC1): -2.52 kcal/mol
Compound: C1=CCCC1

Compound: O
solvation free energy, 298 K (in BrC(Br)Br): -1.76 kcal/mol
solvation free energy, 298 K (in BrC(Br)C(Br)Br): -1.63 kcal/mol
solvation free energy, 298 K (in BrCCBr): -1.98 kcal/mol
solvation free energy, 298 K (in C1CCCCC1): -0.54 kcal/mol
solvation free energy, 298 K (in C1COCCO1): -4.37 kcal/mol
solvation free energy, 298 K (in C=CCCCCCCC=C): -1.19 kcal/mol
solvation free energy, 298 K (in C=CCCCCCCCCCCCCCC): -0.63 kcal/mol
solvation free energy, 298 K (in CC(C)=O): -4.34 kcal/mol
solvation free energy, 298 K (in CC(C)C): -0.64 kcal/mol
solvation free energy, 298 K (in CC(C)C(C)C): -0.56 kcal/mol
solvation free energy, 298 K (in CC(C)C(C)C(C)C): -0.49 kcal/mol
solvation free energy, 298 K (in CC(C)CC(C)(C)C): -0.52 kcal/mol
solvation free energy, 298 K (in CC(C)CC(C)C): -0.51 kcal/mol
solvation free energy, 298 K (in CC(C)CCC(C)(C)C): -0.49 kcal/mol
solvation free energy, 298 K (in CCC): -0.66 kcal/mol
solvation free energy, 298 K (in CCC(C)(C)C): -0.51 kcal/mol
solvation free energy, 298 K (in CCC(C)=O): -4.02 kcal/mol
solvation free energy, 298 K (in CCC(C)C): -0.56 kcal/mol
solvation free energy, 298 K (in CCC(C)CC): -0.59 kcal/mol
solvation free energy, 298 K (in CCCC(C)C): -0.55 kcal/mol
solvation free energy, 298 K (in CCCC(C)CC): -0.47 kcal/mol
solvation free energy, 298 K (in CCCCC): -0.64 kcal/mol
solvation free energy, 298 K (in CCCCC(=O)CC): -3.3 kcal/mol
solvation free energy, 298 K (in CCCCCC): -0.67 kcal/mol
solvation free energy, 298 K (in CCCCCCC): -0.72 kcal/mol
solvation free energy, 298 K (in CCCCCCCC): -0.73 kcal/mol
solvation free energy, 298 K (in CCCCCCCCC): -0.53 kcal/mol
solvation free energy, 298 K (in CCCCCCCCCC): -0.48 kcal/mol
solvation free energy, 298 K (in CCCCCCCCCCC): -0.47 kcal/mol
solvation free energy, 298 K (in CCCCCCCCCCCC): -0.44 kcal/mol
solvation free energy, 298 K (in CCCCCCCCCCCCC): -0.4 kcal/mol
solvation free energy, 298 K (in CCCCCCCCCCCCCCCC): -0.42 kcal/mol
solvation free energy, 298 K (in CCCCCCCCCCO): -3.98 kcal/mol
solvation free energy, 298 K (in CCCCCCCCO): -4.15 kcal/mol
solvation free energy, 298 K (in CCCCO): -4.5 kcal/mol
solvation free energy, 298 K (in CCCCOCCO): -4.6 kcal/mol
solvation free energy, 298 K (in CCCO): -4.76 kcal/mol
solvation free energy, 298 K (in CCCOCC(C)O): -4.29 kcal/mol
solvation free energy, 298 K (in CCO): -5.05 kcal/mol
solvation free energy, 298 K (in CN(C)C=O): -5.55 kcal/mol
solvation free energy, 298 K (in CNC(C)=O): -5.8 kcal/mol
solvation free energy, 298 K (in CNC=O): -5.28 kcal/mol
solvation free energy, 298 K (in CO): -5.59 kcal/mol
solvation free energy, 298 K (in ClC(Cl)(Cl)Cl): -1.15 kcal/mol
solvation free energy, 298 K (in ClC(Cl)=C(Cl)Cl): -1.15 kcal/mol
solvation free energy, 298 K (in NC=O): -5.67 kcal/mol
solvation free energy, 298 K (in S=C=S): -1.01 kcal/mol

Compound: C=CC1CC=CCC1 (stereo not given)
solvation free energy, 298 K (in CCCCCCCCCCCCCCCC): -4.94 kcal/mol
solvation free energy, 298 K (in COCCO): -4.42 kcal/mol
solvation free energy, 298 K (in CS(C)=O): -3.97 kcal/mol
solvation free energy, 298 K (in O): 0.36 kcal/mol

solvation free energy, 298 K (in O): -8.98 kcal/mol
solvation free energy, 298 K (in O=C1CCCCC1): -19.4 kcal/mol
Compound: c1cc2ccc3ccc4ccc5cccc6c(c1)c2c3c4c56

Compound: Nc1ccccc1[N+](=O)[O-]
solvation free energy, 298 K (in CC(C)CC(C)(C)C): -7.5 kcal/mol
solvation free energy, 298 K (in CCCCCC): -7.51 kcal/mol
solvation free energy, 298 K (in O): -7.43 kcal/mol

Compound: c1ccc(Cn2ccnc2)cc1
solvation free energy, 298 K (in O): -7.63 kcal/mol

Compound: Clc1ccc(Cl)c(-c2ccccc2Cl)c1
solvation free energy, 298 K (in CCCCCCCCC=CCCCCCCCC(=O)OCC(COC(=O)CCCCCCCC=CCCCCCCCC)OC(=O)CCCCCCCC=CCCCCCCCC): -9.75 kcal/mol
solvation free energy, 298 K (in O): -2.37 kcal/mol

solvation free energy, 298 K (in CN(C)C=O): -12.3 kcal/mol
solvation free energy, 298 K (in O): -6.67 kcal/mol
Compound: O=C(O)c1ccc(Br)cc1

solvation free energy, 298 K (in CCCCCCCCCCCCCCCC): -5.94 kcal/mol
solvation free energy, 298 K (in CCCCCCCCO): -6.26 kcal/mol
solvation free energy, 298 K (in NC=O): -4.6 kcal/mol
solvation free energy, 298 K (in O): -2.29 kcal/mol
solvation free energy, 298 K (in [2H]O[2H]): -2.44 kcal/mol
Compound: CCCCCCOC(C)=O

Compound: Cc1cc(C)cc(C)c1
solvation free energy, 298 K (in O): -0.77 kcal/mol
solvation free energy, 298 K (in OCCO): -3.76 kcal/mol
solvation free energy, 298 K (in OCCOCCO): -4.65 kcal/mol

Compound: CCCN(CCC)N=O
solvation free energy, 298 K (in CC(C)CC(C)(C)C): -6.56 kcal/mol

Compound: CC(C)NC(C)C
solvation free energy, 298 K (in O): -3.22 kcal/mol

solvation free energy, 298 K (in CCCO): 0.03 kcal/mol
solvation free energy, 298 K (in O): -0.22 kcal/mol
Compound: CF

Compound: Cc1[nH]c(=O)n(C(C)(C)C)c(=O)c1Cl
solvation free energy, 298 K (in O): -11.1 kcal/mol

Compound: Cc1cccc(C)c1N
solvation free energy, 298 K (in O): -5.21 kcal/mol

Compound: FC(F)Cl
solvation free energy, 298 K (in CCCCCCCC(=O)OCC(COC(=O)CCCCCCC)OC(=O)CCCCCCC): -1.69 kcal/mol
solvation free energy, 298 K (in CCCCCCCCC): -1.16 kcal/mol

solvation free energy, 298 K (in O): 0.35 kcal/mol
Compound: C=C1C2CCC(C2)C1(C)CCC=C(C)C (stereo not given)

solvation free energy, 298 K (in O): 4.46 kcal/mol
Compound: CC(CC(C)(C)C)CC(C)(C)CC(C)(C)C (stereo not given)

solvation free energy, 298 K (in O): -4.61 kcal/mol
Compound: CC(=O)C1CC1
